Laboratory results as given in the supplement of paper PMC11923942.
One block for each compound: values may come before it.

Assays:
[1] = GC retention time (DB-5MS, GC-APCI); higher = later elution
Procedure: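 Standards of hydrophobic organic contaminants were analysed by GC-APCI (positive mode, dry or wet source conditions) coupled to cyclic ion mobility-QTOF MS. CCS was measured for the base ion (sometimes a fragment ion) in N2 drift gas (one-pass mode, calibrated with a Waters 22-compound mix). 5 mL/min).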

[2] = collision cross section (N2, base ion); higher = larger ion cross section
Procedure: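 Standards of hydrophobic organic contaminants were analysed by GC-APCI (positive mode, dry or wet source conditions) coupled to cyclic ion mobility-QTOF MS. CCS was measured for the base ion (sometimes a fragment ion) in N2 drift gas (one-pass mode, calibrated with a Waters 22-compound mix).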

Compound: Clc1ccc(-c2ccc(Cl)cc2Cl)cc1 [PCB 28] (APCI source condition: Dry, base ion: M+.)
GC retention time [1]: 16.4 min
collision cross section [2]: 142.54 Å²

GC retention time [1]: 28.6 min
Compound: Brc1ccc(Br)c(Oc2c(Br)c(Br)c(Br)c(Br)c2Br)c1 [PBDE 185] (APCI source condition: Dry, base ion: M+.)
collision cross section [2]: 182.95 Å²

Compound: CCCCC(CC)COC(=O)c1cc(Br)c(Br)c(Br)c1Br (configuration not stated) [2-Ethylhexyl-2,3,4,5-tetrabromobenzoate] (APCI source condition: Dry, base ion: C7H3Br4O2+)
GC retention time [1]: 24.2 min
collision cross section [2]: 141.48 Å²

Compound: O=S1OC[C@@H]2[C@H](CO1)[C@]1(Cl)C(Cl)=C(Cl)[C@]2(Cl)C1(Cl)Cl (stereo partly drawn) [β-Endosulfan] (APCI source condition: Wet, base ion: [M+H]+)
GC retention time [1]: 20 min
collision cross section [2]: 162.35 Å²

Compound: Brc1cc(Br)c(Oc2cc(Br)c(Br)cc2Br)cc1Br [PBDE 153] (APCI source condition: Dry, base ion: M+.)
GC retention time [1]: 26 min
collision cross section [2]: 180.67 Å²

GC retention time [1]: 22.5 min
Compound: Brc1ccc(Oc2ccc(Br)c(Br)c2)c(Br)c1 [PBDE 66] (APCI source condition: Dry, base ion: M+.)
collision cross section [2]: 163.83 Å²

GC retention time [1]: 16.6 min
Compound: Clc1cccc(-c2cccc(Cl)c2Cl)c1 [PCB 20] (APCI source condition: Dry, base ion: M+.)
collision cross section [2]: 140.68 Å²

Compound: CCCCOCCOP(=O)(OCCOCCCC)OCCOCCCC [Tris(2-butoxyethyl) phosphate] (APCI source condition: Wet, base ion: [M+H]+)
GC retention time [1]: 21.1 min
collision cross section [2]: 198.91 Å²

GC retention time [1]: 21.5 min
Compound: CCCCC(CC)COP(=O)(OCC(CC)CCCC)OCC(CC)CCCC (configuration not stated) [Tris(2-ethylhexyl) phosphate] (APCI source condition: Wet, base ion: [M+H]+)
collision cross section [2]: 221.61 Å²

Compound: ClC1=C(Cl)C2(Cl)C3C(Cl)C=CC3C1(Cl)C2(Cl)Cl (configuration not stated) [Heptachlor] (APCI source condition: Dry, base ion: [M-H]+)
GC retention time [1]: 16.7 min
collision cross section [2]: 157.41 Å²

Compound: Brc1ccc(Oc2ccc(Br)c(Br)c2Br)c(Br)c1 [PBDE 85] (APCI source condition: Dry, base ion: M+.)
GC retention time [1]: 25 min
collision cross section [2]: 170.22 Å²
